As a reminder, the IC90 is the concentration at which the effect reaches the 90% level.

For this assay, the system named is Acinetobacter baumannii ATCC17978. The assay is described as follows: Antimicrobial susceptibility testing, 90% growth inhibitory concentration (IC90) determination, ATCC17978. The class given is cell-based. The conditions noted are these: Iso-Sensitest broth, OD 600 nm over 16 h, 35±2° C., read-out: ATCC 17978 IC90. As to the method: Antimicrobial Susceptibility Testing: 90% Growth Inhibitory Concentration (IC90) Determination The in vitro antimicrobial activity of the compounds was determined according to the following procedure: The assay used a 10-points Iso-Sensitest broth medium to measure quantitatively the in vitro activity of the compounds against Acinetobacter baumannii ATCC17978 or ATCC17961. Stock compounds in DMSO were serially twofold diluted (e.g. range from 50 to 0.097 μM final concentration) in 384 wells microtiter plates and inoculated with 49 μl the bacterial suspension in Iso-Sensitest medium to have a final cell concentration of ˜5×10^(5) CFU/ml in a final volume/well of 50 ul/well. Microtiter plates were incubated at 35±2° C. Bacterial cell growth was determined with the measurement of optical density at X=600 nm each 20 minutes over a time course of 16 h. Growth inhibition was calculated during the logarithmic growth of the bacterial cells with determination of the concentration inhibiting 50% (IC50) and 90% (IC90) of the growth. Table 1 provides the 90% growth inhibitory concentrations (IC90) in micromoles per liter of the compounds of present invention obtained against the strain Acinetobacter baumannii ATCC17978.

Counter-ions that a name gives are not always drawn.

Take `COc1ccc(-c2cnc(C(=O)Nc3ccc(C(=O)NC4CCN(C(=O)CN(C)C)CC4)c(Cl)c3)n2C)c(F)c1F` [Example A25, N-[3-chloro-4-[[1-[2-(dimethylamino)acetyl]-4-piperidyl]carbamoyl]phenyl]-5-(2,3-difluoro-4-methoxy-phenyl)-1-methyl-imidazole-2-carboxamide]: the IC90 was determined as 0.13 µM.

Consider `COc1ccc(-c2cnc(C(=O)Nc3ccc(C(=O)N[C@H]4C[C@@H](NC(=O)[C@@H]5CCNC[C@@H]5O)C4)c(Cl)c3)n2C)c(F)c1F` [Example B41, (3R,4R)-N-[3-[[2-chloro-4-[[5-(2,3-difluoro-4-methoxy-phenyl)-1-methyl-imidazole-2-carbonyl]amino]benzoyl]amino]cyclobutyl]-3-hydroxy-piperidine-4-carboxamide;formic acid], for which the IC90 was 0.13 µM.

For the compound `COc1ccc(-c2cnc(C(=O)Nc3ccc(C(=O)N[C@H]4C[C@@H](C(=O)N5CC(N)C5)C4)c(Cl)c3)n2C)c(F)c1F` [Example B20, N-[4-[[3-(3-aminoazetidine-1-carbonyl)cyclobutyl]carbamoyl]-3-chloro-phenyl]-5-(2,3-difluoro-4-methoxy-phenyl)-1-methyl-imidazole-2-carboxamide;formic acid], the IC90 was found to be 0.21 µM.

For `COc1ccc(-c2cnc(C(=O)Nc3ccc(C(=O)NCCCCCN(C)C)c(Cl)c3)n2C)c(F)c1F` [Example A26, N-[3-chloro-4-[5-(dimethylamino)pentylcarbamoyl]phenyl]-5-(2,3-difluoro-4-methoxy-phenyl)-1-methyl-imidazole-2-carboxamide], the IC90 was 0.2 µM.

For `CCc1cc(NC(=O)c2ncc(-c3ccc(OC(F)F)c(F)c3F)n2C)ccc1C(=O)NCCOCCN` [Example A17, N-[4-[2-(2-aminoethoxy)ethylcarbamoyl]-3-ethyl-phenyl]-5-[4-(difluoromethoxy)-2,3-difluoro-phenyl]-1-methyl-imidazole-2-carboxamide;hydrochloride], the IC90 amounted to 0.4 µM.

Regarding `COc1ccc(-c2cnc(C(=O)Nc3ccc(C(=O)NC4CCN(C(=O)C5CCNCC5)CC4)c(Cl)c3)n2C)c(F)c1F` [Example B5, N-[3-chloro-4-[[1-(piperidine-4-carbonyl)-4-piperidyl]carbamoyl]phenyl]-5-(2,3-difluoro-4-methoxy-phenyl)-1-methyl-imidazole-2-carboxamide;formic acid], the IC90 worked out at 0.079 µM.

`COc1ccc(-c2cnc(C(=O)Nc3ccc(C(=O)NC4CCNC4)c(Cl)c3)n2C)c(F)c1F` (stereo not shown) [Example A3, N-[3-chloro-4-(pyrrolidin-3-ylcarbamoyl)phenyl]-5-(2,3-difluoro-4-methoxy-phenyl)-1-methyl-imidazole-2-carboxamide;formic acid]: the IC90 turned out to be 0.31 µM.

As for `CC[C@]1(O)CN[C@@H](C(=O)NCCNC(=O)c2ccc(NC(=O)c3ncc(-c4ccc(OC)c(F)c4F)n3C)cc2C)C1` [Example B27, 5-(2,3-difluoro-4-methoxy-phenyl)-N-[4-[2-[[(2R,4R)-4-ethyl-4-hydroxy-pyrrolidine-2-carbonyl]amino]ethylcarbamoyl]-3-methyl-phenyl]-1-methyl-imidazole-2-carboxamide;formic acid], the IC90 came to 1.1 µM.

As to `Cn1c(-c2ccc(OCC#N)c(F)c2F)cnc1C(=O)Nc1ccc(C(=O)NCCN2CCNCC2)c(Cl)c1` [Example A10, N-[3-chloro-4-(2-piperazin-1-ylethylcarbamoyl)phenyl]-5-[4-(cyanomethoxy)-2,3-difluoro-phenyl]-1-methyl-imidazole-2-carboxamide;2,2,2-trifluoroacetic acid], the IC90 was 0.36 µM.

On to `Cc1cc(NC(=O)c2ncc(-c3ccc(OCC#N)c(F)c3F)n2C)ccc1C(=O)NCCNC(=O)N[C@H]1CNC[C@@H]1O` [Example B31, 5-[4-(cyanomethoxy)-2,3-difluoro-phenyl]-N-[4-[2-[[(3S,4S)-4-hydroxypyrrolidin-3-yl]carbamoylamino]ethylcarbamoyl]-3-methyl-phenyl]-1-methyl-imidazole-2-carboxamide;formic acid], for which the IC90 was determined as 0.74 µM.

In the case of `COc1ccc(-c2cnc(C(=O)Nc3ccc(C(=O)N[C@H]4C[C@@H](C(=O)N[C@H]5C[C@@H](N)C5)C4)c(Cl)c3)n2C)c(F)c1F` [Example B21, N-[4-[[3-[(3-aminocyclobutyl)carbamoyl]cyclobutyl]carbamoyl]-3-chloro-phenyl]-5-(2,3-difluoro-4-methoxy-phenyl)-1-methyl-imidazole-2-carboxamide;2,2,2-trifluoroacetic acid], the IC90 came to 0.098 µM.

With `CCc1cc(NC(=O)c2ncc(-c3ccc(OC(F)F)c(F)c3F)n2C)ccc1C(=O)NCCCNC(=O)C1CCN(CC2CNC2)CC1` [Example C3, 1-(azetidin-3-ylmethyl)-N-[3-[[4-[[5-[4-(difluoromethoxy)-2,3-difluoro-phenyl]-1-methyl-imidazole-2-carbonyl]amino]-2-ethyl-benzoyl]amino]propyl]piperidine-4-carboxamide;formic acid], the IC90 was determined as 0.45 µM.

With `COc1ccc(-c2cnc(C(=O)Nc3ccc(C(=O)N[C@H]4C[C@@H](NC(=O)C5(O)CCNCC5)C4)c(Cl)c3)n2C)c(F)c1F` [Example B40, N-[3-[[2-chloro-4-[[5-(2,3-difluoro-4-methoxy-phenyl)-1-methyl-imidazole-2-carbonyl]amino]benzoyl]amino]cyclobutyl]-4-hydroxy-piperidine-4-carboxamide;formic acid], the IC90 came to 0.12 µM.

As to `COc1ccc(-c2cnc(C(=O)Nc3ccc(C(=O)NCCCCCCN)c(Cl)c3)n2C)c(F)c1F` [Example A6, N-[4-(6-aminohexylcarbamoyl)-3-chloro-phenyl]-5-(2,3-difluoro-4-methoxy-phenyl)-1-methyl-imidazole-2-carboxamide], the IC90 amounted to 0.15 µM.

On to `COc1ccc(-c2cnc(C(=O)Nc3ccc(C(=O)N[C@H]4C[C@@H](C(=O)NCCN)C4)c(Cl)c3)n2C)c(F)c1F` [Example B19, N-[4-[[3-(2-aminoethylcarbamoyl)cyclobutyl]carbamoyl]-3-chloro-phenyl]-5-(2,3-difluoro-4-methoxy-phenyl)-1-methyl-imidazole-2-carboxamide;formic acid], for which the IC90 was 0.16 µM.

As to `Cn1c(-c2ccc(OC(F)F)c(F)c2F)cnc1C(=O)Nc1ccc(C(=O)NCCC2CN(C(=O)CCN)C2)c(Cl)c1` [Example B10, N-[4-[2-[1-(3-aminopropanoyl)azetidin-3-yl]ethylcarbamoyl]-3-chloro-phenyl]-5-[4-(difluoromethoxy)-2,3-difluoro-phenyl]-1-methyl-imidazole-2-carboxamide;2,2,2-trifluoroacetic acid], the IC90 turned out to be 0.14 µM.

For the compound `COc1ccc(-c2cnc(C(=O)Nc3ccc(C(=O)NC4CCN(C(=O)[C@@H]5C[C@@H](O)CN5)CC4)c(Cl)c3)n2C)c(F)c1F` [Example B7, N-[3-chloro-4-[[1-[(2S,4R)-4-hydroxypyrrolidine-2-carbonyl]-4-piperidyl]carbamoyl]phenyl]-5-(2,3-difluoro-4-methoxy-phenyl)-1-methyl-imidazole-2-carboxamide], the 90% effect concentration (IC90) was 0.082 µM.

`COc1ccc(-c2cnc(C(=O)Nc3ccc(C(=O)N[C@H]4C[C@@H](NC(=O)[C@H]5CCNC[C@H]5O)C4)c(Cl)c3)n2C)c(F)c1F` [Example B42, (3S,4S)-N-[3-[[2-chloro-4-[[5-(2,3-difluoro-4-methoxy-phenyl)-1-methyl-imidazole-2-carbonyl]amino]benzoyl]amino]cyclobutyl]-3-hydroxy-piperidine-4-carboxamide;formic acid]: the IC90 came to 0.073 µM.

On to `Cc1cc(NC(=O)c2ncc(-c3ccc(OCC#N)c(F)c3F)n2C)ccc1C(=O)NCCNC(=O)C1(O)CCNCC1` [Example B14, N-[2-[[4-[[5-[4-(cyanomethoxy)-2,3-difluoro-phenyl]-1-methyl-imidazole-2-carbonyl]amino]-2-methyl-benzoyl]amino]ethyl]-4-hydroxy-piperidine-4-carboxamide;formic acid], for which the IC90 came out at 0.99 µM.

For the compound `CCc1cc(NC(=O)c2ncc(-c3ccc(OCC#N)c(F)c3F)n2C)ccc1C(=O)NCCOCCN` [Example A20, N-[4-[2-(2-aminoethoxy)ethylcarbamoyl]-3-ethyl-phenyl]-5-[4-(cyanomethoxy)-2,3-difluoro-phenyl]-1-methyl-imidazole-2-carboxamide;hydrochloride], the IC90 was 0.96 µM.

Turning to `Cn1c(-c2ccc(OCC#N)c(F)c2F)cnc1C(=O)Nc1ccc(C(=O)NCCCN2CCNCC2)c(Cl)c1` [Example A11, N-[3-chloro-4-(3-piperazin-1-ylpropylcarbamoyl)phenyl]-5-[4-(cyanomethoxy)-2,3-difluoro-phenyl]-1-methyl-imidazole-2-carboxamide;2,2,2-trifluoroacetic acid], the IC90 came to 0.31 µM.

Consider `Cn1c(-c2ccc(OCC#N)c(F)c2F)cnc1C(=O)Nc1ccc(C(=O)NCCNC(=O)[C@@H]2CCNC[C@H]2O)c(Cl)c1` [Example B34, (3S,4R)-N-[2-[[2-chloro-4-[[5-[4-(cyanomethoxy)-2,3-difluoro-phenyl]-1-methyl-imidazole-2-carbonyl]amino]benzoyl]amino]ethyl]-3-hydroxy-piperidine-4-carboxamide;formic acid], for which the IC90 amounted to 1.7 µM.

The record behind these values is US20230257354A1, “NOVEL HETEROCYCLIC COMPOUNDS” (Hoffmann-La Roche Inc., priority 2020, published 2023).
